Experimental data from article PMC6681416, “Novel Derivatives of Deoxycholic Acid Bearing Linear Aliphatic Diamine and Aminoalcohol Moieties and their Cyclic Analogs at the C3 Position: Synthesis and Evaluation of Their In Vitro Antitumor Potential” (Molecules, 2019).
Like-named read-outs stand apart in the source and are kept apart here.

Assays:
[1] = system: HuTu-80 cells; set-up: method as in PMID 28688958, PMID 26037611, PMID 28887170; details: MTT, 24 h; values marked by asterisk; ref [21],[22],[23]; read-out: IC50 HuTu-80 (duodenum); cited from earlier work
[2] = system: KB-3-1 cells; test: MTT cytotoxicity assay, KB-3-1; assay type: cell-based, human; details: for Selectivity index KB-3-1: ratio IC50 hFF3 / IC50 KB-3-1; for IC50: Homo sapiens, KB 3-1, MTT, 24 h, read-out: IC50 KB3-1 (cervix)
From the text: (§1) According to our previous data and data published by other research groups, chemical transformations of bile acids can greatly improve their antitumor potential. Thus, as the first step of evaluation of the biological activities of our novel DCA derivatives we assessed their effects on tumor cell viability. The cytotoxicity of the compounds was investigated with respect to a panel of cultured cell lines, including human duodenal HuTu-80, hepatocellular HepG2, cervical KB-3-1 and lung A549 carcinomas as well as murine macrophage RAW264.7 and non-transformed human fibroblasts hFF3 by MTT assay.
(§2) Human duodenal carcinoma HuTu-80 cells, human hepatocellular carcinoma HepG2 cells, human cervical carcinoma KB-3-1 cells, human lung carcinoma A549 cells were obtained from the Russian Cell Culture Collection (Institute of Cytology, RAS, St. Petersburg, Russia). Non-transformed human fibroblasts hFF3 were kindly provided by Dr. Olga Koval (Institute of Chemical Biology and Fundamental Medicine, SB RAS, Novosibirsk, Russia). RAW264.7 macrophages were kindly provided by Prof. Dr. Dmitry Kuprash (Engelhardt Institute of Molecular Biology, RAS, Moscow, Russia). The cells were cultured in DMEM (Sigma-Aldrich Inc., St. Louis, MO, USA) supplemented with 10% (v/v) heat-inactivated fetal bovine serum (FBS) (BioloT, St. Petersburg, Russia), 100 U/mL penicillin (ICN Biomedicals Inc., Costa Mesa, CA, USA), 100 µg/mL streptomycin and 0.25 µg/mL amphotericin; additionally, in the case of RAW264.7 cells, concentration of glucose in the medium was increased up to 4.5 mg/mL. The cells were incubated at 37 °C in 5% CO2 and 95% air (hereafter referred to as standard conditions). DCA derivatives were dissolved in DMSO to yield stock solutions of 10 mmol/L and stored at −20 °C prior to use.
(§3) Cells were seeded in triplicate in 96-well plates at a density of 5 × 10^3 (HuTu-80, HepG2, KB-3-1, hFF3), 10^4 (A549) or 5 × 10^4 (RAW264.7) cells per well. Cells were incubated under standard conditions for 24 h and then they were treated with varying doses of investigated derivatives for subsequent 24 h. Then 10 µL of MTT solution (5 mg/mL) were added to each wells and cells were incubated for an additional 2 h under standard conditions. The crystals of formazan forming within live cells were solubilized with DMSO and the absorbance was measured in a Multiscan RC plate reader (Thermo LabSystems, Helsinki, Finland) at a test and reference wavelengths of 570 nm and 620 nm, respectively. […] To perform SAR analysis, hierarchical clustering of compounds based on their IC50 values was fulfilled with Euclidean distance by using the Morpheus tool (https://software.broadinstitute.org/morpheus/), a platform designed for visualization and analysis of data in a matrix format. Heatmap, containing compounds’ SI values, were constructed by using the Excel 2010 software (Microsoft, Redmond, WA, USA). In order to reveal whether ROS participate in the induction of cell death by compound 9, HuTu-80 cells cultured in 96-well plate were pretreated by NAC at 2 mM for 1 h. Thereafter, the medium was replaced by fresh medium with compound 9 at 8 µM and the cells were incubated with subsequent 24 h under standard conditions. After this time period, the curves of cytotoxicity of compound 9 in the presence or absence of NAC were compared.

[3] = system: HepG2 cells; set-up: method as in PMID 28688958, PMID 26037611, PMID 28887170; details: MTT, 24 h; values marked by asterisk; ref [21],[22],[23]; read-out: IC50 HepG2 (liver); cited from earlier work
[4] = system: A549 cells; test: MTT cytotoxicity assay, A549; assay type: cell-based, human; details: for Selectivity index A549: ratio IC50 hFF3 / IC50 A549; for IC50: Homo sapiens, A549, MTT, 24 h, read-out: IC50 A549 (lung)
From the text: as §1, §2, §3

[5] = system: RAW264.7 macrophages; test: MTT cytotoxicity assay, RAW264.7; assay type: cell-based, murine; details: for IC50: Mus musculus, RAW264.7, MTT, 24 h, read-out: IC50 RAW264.7 (macrophage); for Selectivity index RAW264: ratio IC50 hFF3 / IC50 RAW264.7
From the text: as §1, §2, §3

[6] = system: NO synthesis by IFNγ-activated RAW264.7 cells; test: Inhibition of NO production by stimulated macrophages (Griess); assay type: cell-based, murine; details: Mus musculus, RAW264.7, 24 h, read-out: IC50NO
Method: RAW264.7 cells were seeded in triplicate in 96-well plates at a density of 5 × 10^4 cells/well and incubated under standard conditions for 24 h. The cells were treated with 20 ng/mL of murine recombinant IFNγ (GIBCO, Gaithersburg, MD, USA), with or without (control) compounds at various concentrations for 24 h. The level of NO production was evaluated by determining the nitrite concentration in culture medium with a Griess Reagent System (Promega, Madison, WI, USA). The IC50^NO value was calculated as the derivative concentration required to decrease NO production to 50% of the non-treated control.

[7] = system: A549 cells; set-up: method as in PMID 28688958, PMID 26037611, PMID 28887170; details: MTT, 24 h; values marked by asterisk; ref [21],[22],[23]; read-out: IC50 A549 (lung); cited from earlier work
[8] = system: panel of cultured cell lines (HuTu-80, HepG2, KB-3-1, A549, RAW264.7, hFF3); set-up: method as in PMID 28688958, PMID 26037611, PMID 28887170; details: MTT, 24 h; summary of Table 1 values marked by asterisk; ref [21],[22],[23]; read-out: IC50, range or lowest value over tested cell lines; cited from earlier work
[9] = system: HuTu-80 cells; test: cells; assay type: cell-based; details: for Selectivity index HuTu-80: ratio IC50 hFF3 / IC50 HuTu-80; for IC50: Homo sapiens, HuTu80, MTT, 24 h, read-out: IC50 HuTu-80 (duodenum)
From the text: as §1, §2, §3

[10] = system: HepG2 cells; test: MTT cytotoxicity assay, HepG2; assay type: cell-based, human; details: for Selectivity index HepG-2: ratio IC50 hFF3 / IC50 HepG2; for IC50: Homo sapiens, HepG2, MTT, 24 h, read-out: IC50 HepG2 (liver)
From the text: as §1, §2, §3

[11] = system: non-transformed human fibroblasts hFF3; set-up: method as in PMID 28688958, PMID 26037611, PMID 28887170; details: MTT, 24 h; values marked by asterisk; ref [21],[22],[23]; read-out: IC50 hFF3 (fibroblast); cited from earlier work
[12] = system: KB-3-1 cells; set-up: method as in PMID 28688958, PMID 26037611, PMID 28887170; details: MTT, 24 h; values marked by asterisk; ref [21],[22],[23]; read-out: IC50 KB3-1 (cervix); cited from earlier work
[13] = system: panel of cultured cell lines (HuTu-80, HepG2, KB-3-1, A549, RAW264.7, hFF3); test: MTT cytotoxicity, range over the panel of tested cell lines; assay type: cell-based; details: 24 h, summary of Table 1 (for 2–10 partly from ref [21])
From the text: as §1
Cells were seeded in triplicate in 96-well plates at a density of 5 × 10^3 (HuTu-80, HepG2, KB-3-1, hFF3), 10^4 (A549) or 5 × 10^4 (RAW264.7) cells per well. Cells were incubated under standard conditions for 24 h and then they were treated with varying doses of investigated derivatives for subsequent 24 h. Then 10 µL of MTT solution (5 mg/mL) were added to each wells and cells were incubated for an additional 2 h under standard conditions. The crystals of formazan forming within live cells were solubilized with DMSO and the absorbance was measured in a Multiscan RC plate reader (Thermo LabSystems, Helsinki, Finland) at a test and reference wavelengths of 570 nm and 620 nm, respectively. […]

[14] = system: non-transformed human fibroblasts hFF3; test: MTT cytotoxicity assay, hFF3; assay type: cell-based; details: HFF-3, 24 h, read-out: IC50 hFF3 (fibroblast)
From the text: as §1
as §2, with “DCA derivatives were dissolved in DMSO to yield stock solutions of 10 mmol/L and stored at −20 °C prior to use.” left out
Cells were seeded in triplicate in 96-well plates at a density of 5 × 10^3 (HuTu-80, HepG2, KB-3-1, hFF3), 10^4 (A549) or 5 × 10^4 (RAW264.7) cells per well. […] The crystals of formazan forming within live cells were solubilized with DMSO and the absorbance was measured in a Multiscan RC plate reader (Thermo LabSystems, Helsinki, Finland) at a test and reference wavelengths of 570 nm and 620 nm, respectively. […]

[15] = Solubility in cell culture medium; assay type: physicochemical; details: maximal tested concentration limited by 50 µM

SMILES: CCN(CC)CCCNC[C@]1(O)CC[C@]2(C)C3CC(=O)[C@@]4(C)C(CC[C@@H]4[C@H](C)CCC(=O)OC)[C@@H]3CC[C@@H]2C1 (stereo partly drawn) [Compound 6]
- IC50 [1]: 1 ± 0.6 µM
- Selectivity index KB-3-1 [2]: 0.9
- IC50 [3]: 3.7 ± 0.17 µM
- Selectivity index A549 [4]: 0.9
- IC50 [5]: 6.7 ± 0.5 µM
- Selectivity index RAW264 [5]: 0.9
- IC50 [6]: > 10 µM
- IC50 [7]: 6.8 ± 0.3 µM
- IC50 [8]: 1 to 6.8 µM
- Selectivity index HuTu-80 [9]: 6.2
- Selectivity index HepG-2 [10]: 1.7
- IC50 [11]: 6.2 ± 0.4 µM
- IC50 [12]: 6.7 ± 0.6 µM

SMILES: COC(=O)CC[C@@H](C)[C@H]1CC[C@H]2[C@@H]3CC[C@@H]4CC(O)(CNCCO)CC[C@]4(C)[C@H]3CC(=O)[C@]12C (stereo partly drawn) [Compound 8, Methyl 3-hydroxy-3-((2-hydroxyethylamino)methyl)-12-oxo-5β-cholan-24-oate]
- IC50 [2]: 17.7 ± 2.8 µM
- Selectivity index KB-3-1 [2]: 1.9
- IC50 [4]: 29.6 ± 2.5 µM
- Selectivity index A549 [4]: 1.2
- IC50 [5]: 23.4 ± 1.2 µM
- Selectivity index RAW264 [5]: 1.5
- IC50 [13]: 4.4 to 34.8 µM
- IC50 [6]: > 10 µM
- IC50 [9]: 4.4 ± 0.34 µM
- Selectivity index HuTu-80 [9]: 7.9
- IC50 [14]: 34.8 ± 1 µM
- IC50 [10]: 5.8 ± 1.3 µM
- Selectivity index HepG-2 [10]: 6

SMILES: COC(=O)CC[C@@H](C)[C@H]1CC[C@H]2[C@@H]3CC[C@@H]4CC(O)(CN5CCOCC5)CC[C@]4(C)[C@H]3CC(=O)[C@]12C (stereo partly drawn) [Compound 10, Methyl 3-hydroxy-3-(morpholinomethyl)-12-oxo-5β-cholan-24-oate]
- IC50 [2]: 8.4 ± 0.5 µM
- Selectivity index KB-3-1 [2]: 5.9
- IC50 [4]: > 50 µM
- Selectivity index A549 [4]: 1
- IC50 [5]: > 50 µM
- Selectivity index RAW264 [5]: 1
- IC50 [6]: > 10 µM
- solubility in cell culture medium [15]: poorly soluble
- IC50 [9]: 10 ± 0.3 µM
- Selectivity index HuTu-80 [9]: 5
- IC50 [14]: > 50 µM
- IC50 [10]: 7.5 ± 1.2 µM
- Selectivity index HepG-2 [10]: 6.6
